Assay type in all cases: in vivo
Series [1] has as its system C57BL/6J mice with alopecia areata. Briefly: Alopecia areata mouse model, oral gavage. The conditions noted are these: 80 mg/kg twice a day oral gavage for 23 d. How it is done:
Drug preparation: appropriate amount of powder of test sample was weighed accurately and put in a sample preparation tube, then add purified water was added and sonification was performed until the sample was completely dissolved. A concentration of 8 mg/ml (based on active ingredient) was prepared, and it was administered within 15 minutes after preparation.
Experimental animals: 16 C57BL/6J mice with alopecia areata, female, 12 weeks old. They were purchased from Beijing Vital River Laboratory Animal Technology Co., Ltd. Animal inclusion criteria: mice with patchy and traceless hair loss, mainly with back hair loss and head hair loss.
Grouping and criteria: 14 C57BL/6J mice were enrolled in the groups, and 5 mice in the model group, 9 mice in the administration group (test sample). The overall situation of hair loss in the administration group was more serious than that in the model group.
Administration information: administration group: single dose: 80 mg/kg (based on active ingredient) twice a day for 23 d continuously; model group: equal doses of vehicle given. Method of administration: oral gavage.
Record of change rate of body weight and alopecia areata area: measured twice a week, weighed and observed with naked eyes on Monday and Thursday.
Spleen size and weight: at the end of the test, the body weight of mice was weighed, and then the mice were subjected to gross anatomy, the spleen of the mice was observed and weighed to calculate the spleen/body weight ratio of mice.

Series [2] deals with normal animals. Nature of the series: Spleen weight in normal animals. The settings on record: no dose or method printed.
Series [3] has as its system Balb/c mice. Briefly: DNCB-induced atopic dermatitis model in mice, oral gavage. The conditions noted are these: 50 mg/kg twice a day oral gavage, vs model group. The procedure: Drug preparation: appropriate amount of powder of sample for test was weighed accurately and put in a sample preparation tube. Purified water was added and sonication was performed until the sample was completely dissolved, and a concentration of 5 mg/ml (based on active ingredient) was prepared, and it was administered within 15 minutes after preparation.
Experimental animals: Balb/c mice were purchased from Sichuan Academy of Traditional Chinese Medicine, 27 mice in total.
Grouping: Balb/c mice (27 mice in total) were randomly divided into three groups, 9 mice in each group, which were blank group, model group and administration group respectively.
Modeling: 300 μl of 1% DNCB was applied to the abdomen of mice in the model group and administration group, and 0.5% DNCB was applied to the ears every other day after 7 d, and lasted for 31 days.
Administration: administration was carried out after 12 days of modeling. Administration group: dosage and frequency of administration: 50 mg/kg (based on active ingredient), twice a day. Model group: the same dose of vehicle was given. The administration cycle was 3 weeks (12 d-31 d). The method of administration: oral gavage.
• (1) General observation: ear thickness and spleen/body weight ratio. At the end point of the test, the body weight of mice was weighed, and the left and right ear thickness (mm) of mice was measured, and then the mice were subjected to gross anatomy, and the spleen of mice was weighed to calculate the spleen/body weight ratio of mice. • (2) Serum: IgE. At the end point of the test, blood was collected from the orbit of mice, and the total IgE in the serum of mice was detected (ELISA method). • (3) Histopathology: HE staining of the ear (to measure ear epidermal thickness) and toluidine blue staining (to measure the number of mast cells in the ear epidermis).
HE staining of ears: the fixed mouse ear tissue was dehydrated by automatic dehydrator and embedded, and then sliced. After dewaxing the slices to water, hematoxylin staining was performed until blue appeared; after elution, eosin staining was performed for sealing, and finally microscopy and image acquisition were carried out.
The above specimens were subjected to the procedures of dehydration, trimming, embedding, slicing, staining, sealing, and other procedures, and finally microscopy and image acquisition were carried out.

Setting [4] is: end point, vs model group, p<0.05.

For `C=CC(=O)N(C)c1cc(Nc2ncc(Cl)c(NCCCNC(=O)c3ccc(C#N)cc3)n2)ccc1F` [test sample, N-(3-((5-chloro-2-((4-fluoro-3-(N-methylacrylamido)phenyl)amino)-4-pyrimidinyl)amino)propyl)-4-cyanobenzamide], in series [1] (setting [4]), the spleen weight result is “significantly lower” and the spleen/body weight ratio result is recorded as “significantly lower”. Moreover, in series [1] (better than model group (vehicle), p<0.01), the alopecia areata area result was “significantly ameliorated”. For the same molecule, in series [2], the “weight of spleen in normal animals” value is on record as “does not reduce the weight of spleen”. Besides, in series [3] (3 weeks (12 d-31 d), end point, # p<0.05), the spleen/body weight ratio entry was “significantly reduced”. For the same molecule, the ear epidermal thickness entry in series [3] (3 weeks, HE staining, # p<0.05) is on record as “significantly decreased”. The “serum IgE level” value in series [3] (3 weeks, end point, ELISA, ## p<0.01) was “significantly decreased”. In series [3] (3 weeks, end point, # p<0.05), the “ear thickness (including the left ear and the right ear)” value is given as “significantly reduced”. Further, the “number of mast cells in ear epidermis” value in series [3] (3 weeks, toluidine blue staining, # p<0.05) is “significantly decreased”.

These data come from US20240382480A1, “PHARMACEUTICAL COMPOSITION CONTAINING JAK3/JAK1/TBK1 SELECTIVE INHIBITOR AND MEDICAL USE THEREOF” (SHENZHEN CHIPSCREEN BIOSCIENCES CO., LTD., priority 2021, published 2024).
